# Target: human LPAR1 (Homo sapiens (Human), UniProt Q92633)
# Assay: LPAR1 intracellular calcium mobilization assay (antagonist mode, FLIPR)
# Type: cell-based
# Details: CHO-K1 EDG2 cells expressing human LPAR1, LPA 18:2 at EC80 (100 nM), test compound 0.5 nM to 10 μM
# Sequence of human LPAR1 (Q92633 whole entry): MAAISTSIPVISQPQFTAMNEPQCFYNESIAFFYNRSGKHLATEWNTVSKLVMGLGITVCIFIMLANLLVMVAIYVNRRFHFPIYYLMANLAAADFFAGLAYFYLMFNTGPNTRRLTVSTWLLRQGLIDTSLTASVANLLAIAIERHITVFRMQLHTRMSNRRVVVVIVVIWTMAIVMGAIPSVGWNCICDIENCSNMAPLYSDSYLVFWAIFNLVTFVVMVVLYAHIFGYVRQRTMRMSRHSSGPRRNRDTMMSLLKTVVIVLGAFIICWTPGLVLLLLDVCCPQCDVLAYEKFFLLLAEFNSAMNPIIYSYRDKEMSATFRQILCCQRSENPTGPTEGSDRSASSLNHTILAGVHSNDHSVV
row,Structure (SMILES),EC50 [nM]
1,"C[C@@H](OC(=O)Nc1c(-c2ccc(NC(=O)C3CC3(C)C)cn2)nnn1C)c1cccnc1Cl (stereo partly drawn) [Compound 49, (R)-1-(2-chloropyridin-3-yl)ethyl (4-(5-(2,2-dimethylcyclopropane-1-carboxamido)pyridin-2-yl)-1-methyl-1H-1,2,3-triazol-5-yl)carbamate]",353
2,"C[C@@H](OC(=O)Nc1c(-c2ccc(NC(=O)[C@H]3C[C@@H]3C#N)cn2)nnn1C)c1cccnc1Cl [Compound 50, (R)-1-(2-chloropyridin-3-yl)ethyl (4-(5-((1S,2S)-2-cyanocyclopropane-1-carboxamido)pyridin-2-yl)-1-methyl-1H-1,2,3-triazol-5-yl)carbamate]",1760
3,"C[C@@H](OC(=O)Nc1c(-c2ccc(NC(=O)[C@@H]3C[C@H]3C#N)cn2)nnn1C)c1cccnc1Cl [Compound 51, (R)-1-(2-chloropyridin-3-yl)ethyl (4-(5-((1R,2R)-2-cyanocyclopropane-1-carboxamido)pyridin-2-yl)-1-methyl-1H-1,2,3-triazol-5-yl)carbamate]",88.7
4,"C[C@@H](OC(=O)Nc1c(-c2ccc(NC(=O)[C@H]3C[C@@H]3F)cn2)nnn1C)c1cccnc1Cl [Compound 52, (R)-1-(2-chloropyridin-3-yl)ethyl (4-(5-((1R,2S)-2-fluorocyclopropane-1-carboxamido)pyridin-2-yl)-1-methyl-1H-1,2,3-triazol-5-yl)carbamate]",622
5,"C[C@@H](OC(=O)Nc1c(-c2ccc(NC(=O)[C@@H]3C[C@@H]3F)cn2)nnn1C)c1cccnc1Cl [Compound 53, (R)-1-(2-chloropyridin-3-yl)ethyl (4-(5-((1S,2S)-2-fluorocyclopropane-1-carboxamido)pyridin-2-yl)-1-methyl-1H-1,2,3-triazol-5-yl)carbamate]",1460
6,"C[C@@H](OC(=O)Nc1c(-c2ccc(NC(=O)C3CCO3)cn2)nnn1C)c1cccnc1Cl (stereo partly drawn) [Compound 54, (R)-1-(2-chloropyridin-3-yl)ethyl (1-methyl-4-(5-(oxetane-2-carboxamido)pyridin-2-yl)-1H-1,2,3-triazol-5-yl)carbamate]",7860
7,"C[C@@H](OC(=O)Nc1c(-c2ccc(NC(=O)C3(C(F)(F)F)CC3)cn2)nnn1C)c1cccnc1Cl [Compound 55, (R)-1-(2-chloropyridin-3-yl)ethyl (1-methyl-4-(5-(1-(trifluoromethyl)cyclopropane-1-carboxamido)pyridin-2-yl)-1H-1,2,3-triazol-5-yl)carbamate]",478
8,"C[C@@H](OC(=O)Nc1c(-c2ccc(NC(=O)[C@H]3C[C@H]3F)cn2)nnn1C)c1cccnc1Cl [Compound 56, (R)-1-(2-chloropyridin-3-yl)ethyl (4-(5-((1R,2R)-2-fluorocyclopropane-1-carboxamido)pyridin-2-yl)-1-methyl-1H-1,2,3-triazol-5-yl)carbamate]",1140
9,"C[C@@H](OC(=O)Nc1c(-c2ccc(NC(=O)C3COC3)cn2)nnn1C)c1cccnc1Cl [Compound 57, (R)-1-(2-chloropyridin-3-yl)ethyl (1-methyl-4-(5-(oxetane-3-carboxamido)pyridin-2-yl)-1H-1,2,3-triazol-5-yl)carbamate]",339
10,"C[C@@H](OC(=O)Nc1c(-c2ccc(NC(=O)c3cccnc3)cn2)nnn1C)c1cccnc1Cl [Compound 58, (R)-1-(2-chloropyridin-3-yl)ethyl (1-methyl-4-(5-(nicotinamido)pyridin-2-yl)-1H-1,2,3-triazol-5-yl)carbamate]",205
11,"C[C@@H](OC(=O)Nc1c(-c2ccc(NC(=O)CC#N)cn2)nnn1C)c1cccnc1Cl [Compound 59, (R)-1-(2-chloropyridin-3-yl)ethyl (4-(5-(2-cyanoacetamido)pyridin-2-yl)-1-methyl-1H-1,2,3-triazol-5-yl)carbamate]",264
12,"C[C@@H](OC(=O)Nc1c(-c2ccc(NC(=O)C3(F)CC3)cn2)nnn1C)c1cccnc1Cl [Compound 60, (R)-1-(2-chloropyridin-3-yl)ethyl (4-(5-(1-fluorocyclopropane-1-carboxamido)pyridin-2-yl)-1-methyl-1H-1,2,3-triazol-5-yl)carbamate]",140
13,"C[C@@H](OC(=O)Nc1c(-c2ccc(NC(=O)c3ccncc3)cn2)nnn1C)c1cccnc1Cl [Compound 61, (R)-1-(2-chloropyridin-3-yl)ethyl (4-(5-(isonicotinamido)pyridin-2-yl)-1-methyl-1H-1,2,3-triazol-5-yl)carbamate]",134
14,"C[C@@H](OC(=O)Nc1c(-c2ccc(NC(=O)[C@H]3C[C@H](F)C3)cn2)nnn1C)c1cccnc1Cl [Compound 62, (R)-1-(2-chloropyridin-3-yl)ethyl (4-(5-((1r,3R)-3-fluorocyclobutane-1-carboxamido)pyridin-2-yl)-1-methyl-1H-1,2,3-triazol-5-yl)carbamate]",110
15,"C[C@@H](OC(=O)Nc1c(-c2ccc(NC(=O)C3CCC3(F)F)cn2)nnn1C)c1cccnc1Cl (stereo partly drawn) [Compound 63, (R)-1-(2-chloropyridin-3-yl)ethyl (4-(5-(2,2-difluorocyclobutane-1-carboxamido)pyridin-2-yl)-1-methyl-1H-1,2,3-triazol-5-yl)carbamate]",120
16,"C[C@@H](OC(=O)Nc1c(-c2ccc(NC(=O)C34CC(C#N)(C3)C4)cn2)nnn1C)c1cccnc1Cl [Compound 64, (R)-1-(2-chloropyridin-3-yl)ethyl (4-(5-(3-cyanobicyclo[1.1.1]pentane-1-carboxamido)pyridin-2-yl)-1-methyl-1H-1,2,3-triazol-5-yl)carbamate]",76.4
17,"C[C@@H](OC(=O)Nc1c(-c2ccc(NC(=O)[C@@H]3CC3(F)F)cn2)nnn1C)c1cccnc1Cl [Compound 65, (R)-1-(2-chloropyridin-3-yl)ethyl (4-(5-((S)-2,2-difluorocyclopropane-1-carboxamido)pyridin-2-yl)-1-methyl-1H-1,2,3-triazol-5-yl)carbamate]",81.9
18,"C[C@@H](OC(=O)Nc1c(-c2ccc(NC(=O)C3(C#N)CCC3)cn2)nnn1C)c1cccnc1Cl [Compound 66, (R)-1-(2-chloropyridin-3-yl)ethyl (4-(5-(1-cyanocyclobutane-1-carboxamido)pyridin-2-yl)-1-methyl-1H-1,2,3-triazol-5-yl)carbamate]",66.6
19,"C[C@@H](OC(=O)Nc1c(-c2ccc(NC(=O)C3(C#N)CC3)cn2)nnn1C)c1cccnc1Cl [Compound 67, (R)-1-(2-chloropyridin-3-yl)ethyl (4-(5-(1-cyanocyclopropane-1-carboxamido)pyridin-2-yl)-1-methyl-1H-1,2,3-triazol-5-yl)carbamate]",30.8
20,"C[C@@H](OC(=O)Nc1c(-c2ccc(NC(=O)C34CC(C3)C4)cn2)nnn1C)c1cccnc1Cl [Compound 68, (R)-1-(2-chloropyridin-3-yl)ethyl (4-(5-(bicyclo[1.1.1]pentane-1-carboxamido)pyridin-2-yl)-1-methyl-1H-1,2,3-triazol-5-yl)carbamate]",40.8
21,"C[C@@H](OC(=O)Nc1c(-c2ccc(NC(=O)[C@@H]3C[C@H]3F)cn2)nnn1C)c1cccnc1Cl [Compound 69, (R)-1-(2-chloropyridin-3-yl)ethyl (4-(5-((1S,2R)-2-fluorocyclopropane-1-carboxamido)pyridin-2-yl)-1-methyl-1H-1,2,3-triazol-5-yl)carbamate]",53
22,"C[C@@H](OC(=O)Nc1c(-c2ccc(NC(=O)C34CC(F)(C3)C4)cn2)nnn1C)c1cccnc1Cl [Compound 70, (R)-1-(2-chloropyridin-3-yl)ethyl (4-(5-(3-fluorobicyclo[1.1.1]pentane-1-carboxamido)pyridin-2-yl)-1-methyl-1H-1,2,3-triazol-5-yl)carbamate]",47.8
23,"C[C@@H](OC(=O)Nc1c(-c2ccc(NC(=O)[C@H]3C[C@@H](F)C3)cn2)nnn1C)c1cccnc1Cl [Compound 71, (R)-1-(2-chloropyridin-3-yl)ethyl (4-(5-((1s,3S)-3-fluorocyclobutane-1-carboxamido)pyridin-2-yl)-1-methyl-1H-1,2,3-triazol-5-yl)carbamate]",89.7
24,"C[C@@H](OC(=O)Nc1c(-c2ccc(NC(=O)C34CC(C(F)(F)F)(C3)C4)cn2)nnn1C)c1cccnc1Cl [Compound 72, (R)-1-(2-chloroypridin-3-yl)ethyl (1-methyl-4-(5-(3-(trifluoromethyl)bicyclo[1.1.1]pentane-1-carboxamido)pyridin-2-yl)-1H-1,2,3-triazol-5-yl)carbamate]",17
25,"C[C@@H](OC(=O)Nc1c(-c2ccc(NC(=O)C3CC4(CCC4)C3)cn2)nnn1C)c1cccnc1Cl [Compound 73, (R)-1-(2-chloropyridin-3-yl)ethyl (1-methyl-4-(5-(spiro[3.3]heptane-2-carboxamido)pyridin-2-yl)-1H-1,2,3-triazol-5-yl)carbamate]",17.3
26,"C[C@@H](OC(=O)Nc1c(-c2ccc(NC(=O)C3(C#N)CC34CCC4)cn2)nnn1C)c1cccnc1Cl (stereo partly drawn) [Compound 74, (R)-1-(2-chloropyridin-3-yl)ethyl (4-(5-(1-cyanospiro[2.3]hexane-1-carboxamido)pyridin-2-yl)-1-methyl-1H-1,2,3-triazol-5-yl)carbamate]",1340
27,"C[C@@H](OC(=O)Nc1c(-c2ccc(NC(=O)C#CC3CC3)cn2)nnn1C)c1cccnc1Cl [Compound 75, (R)-1-(2-chloropyridin-3-yl)ethyl (4-(5-(3-cyclopropylpropiolamido)pyridin-2-yl)-1-methyl-1H-1,2,3-triazol-5-yl)carbamate]",23.4
28,"CC#CC(=O)Nc1ccc(-c2nnn(C)c2NC(=O)O[C@H](C)c2cccnc2Cl)nc1 [Compound 76, (R)-1-(2-chloropyridin-3-yl)ethyl (4 (5-(but-2-ynamido)pyridin-2-yl)-1-methyl-1H-1,2,3-triazol-5-yl)carbamate]",275
29,"C[C@@H](OC(=O)Nc1c(-c2ccc(NC(=O)C3CC4(C3)CC3(CCC3)C4)cn2)nnn1C)c1cccnc1Cl [Compound 77, (R)-1-(2-chloropyridin-3-yl)ethyl (4-(5-(dispiro[3.1.36.14]decane-2-carboxamido)pyridin-2-yl)-1-methyl-1H-1,2,3-triazol-5-yl)carbamate]",25.5

# Reference: patent US11912686B2 (Gilead Sciences, Inc., priority 2020, dated 2024)
